This note sets out measurements from PubChem BioAssay AID256 (DTP/NCI, 2004).

The test relates to CD2F1 mice, L1210 leukemia ip, survival T/C. Put plainly: NCI In Vivo Anticancer Drug Screen. Data for tumor model L1210 Leukemia (intraperitoneal) in CD2F1 (CDF1) mice. The settings on record: higher = longer survival. The essentials:
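Each value reflects a quotient of treated over vehicle control outcomes in mice with a transplanted tumor.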

Setting [1] is: endpoint: mean survival time, dose: 50.0 mg/kg/injection, schedule: Q04DX003 (ip), vehicle: saline.
Setting [2] is: endpoint: mean survival time, dose: 100.0 mg/kg/injection, schedule: Q01DX001 (ip), vehicle: saline.
The mark [3] stands for this setting: endpoint: mean survival time, dose: 100.0 mg/kg/injection, schedule: Q04DX003 (ip), vehicle: saline.
The mark [4] stands for this setting: endpoint: mean survival time, dose: 100.0 mg/kg/injection, schedule: Q04DX003 (ip), vehicle: saline with Tween-80.
The mark [5] stands for this setting: endpoint: mean survival time, dose: 200.0 mg/kg/injection, schedule: Q04DX003 (ip), vehicle: saline with Tween-80.
The mark [6] stands for this setting: endpoint: mean survival time, dose: 75.0 mg/kg/injection, schedule: Q01DX001 (ip), vehicle: other.
Where [7] appears, read: endpoint: mean survival time, dose: 150.0 mg/kg/injection, schedule: Q01DX001 (ip), vehicle: other.
[8] abbreviates: endpoint: mean survival time, dose: 200.0 mg/kg/injection, schedule: Q01DX001 (ip), vehicle: saline.
Where [9] appears, read: endpoint: mean survival time, dose: 400.0 mg/kg/injection, schedule: Q01DX001 (ip), vehicle: saline.
[10] abbreviates: endpoint: mean survival time, dose: 25.0 mg/kg/injection, schedule: Q04DX003 (ip), vehicle: saline.

Values joined by “and” are separate entries in the source; they are usually repeats but may differ in a detail not shown here. Identical values can stand only once. Inconclusive results and toxic doses are left out.

For `COc1ccc(Cl)cc1Cn1ccnc1`, the T/C was 104 % of control (endpoint: mean survival time, dose: 50.0 mg/kg/injection, schedule: Q01DX001 (ip), vehicle: saline); 115 % of control and 102 % of control (endpoint: mean survival time, dose: 50.0 mg/kg/injection, schedule: Q01DX009 (ip), vehicle: saline); 107 % of control under setting [1]; 107 % of control under setting [2]; 118 % of control and 107 % of control (endpoint: mean survival time, dose: 100.0 mg/kg/injection, schedule: Q01DX009 (ip), vehicle: saline); 115 % of control and 100 % of control (endpoint: mean survival time, dose: 100.0 mg/kg/injection, schedule: Q04DX002 (ip), vehicle: saline). In addition, the T/C under setting [3] was 115 % of control; the T/C (endpoint: mean survival time, dose: 200.0 mg/kg/injection, schedule: Q04DX002 (ip), vehicle: saline) was 117 % of control and 109 % of control.

With `NC(=S)NNC(N)=S`, the T/C runs as follows: (endpoint: mean survival time, dose: 100.0 mg/kg/injection, schedule: Q01DX009 (ip), vehicle: saline with Tween-80) 101 % of control; under setting [4], 104 % of control; (endpoint: mean survival time, dose: 200.0 mg/kg/injection, schedule: Q01DX009 (ip), vehicle: saline with Tween-80) 95 % of control; under setting [5], 102 % of control; (endpoint: mean survival time, dose: 400.0 mg/kg/injection, schedule: Q01DX009 (ip), vehicle: saline with Tween-80) 110 % of control; (endpoint: mean survival time, dose: 400.0 mg/kg/injection, schedule: Q04DX003 (ip), vehicle: saline with Tween-80) 107 % of control.

`Nc1ccc(-c2nc(=S)c3cn[nH]c3[nH]2)cc1`: the T/C was 92 % of control (endpoint: mean survival time, dose: 12.5 mg/kg/injection, schedule: Q01DX005 (ip), vehicle: other); 94 % of control (endpoint: mean survival time, dose: 25.0 mg/kg/injection, schedule: Q01DX005 (ip), vehicle: other); 91 % of control (endpoint: mean survival time, dose: 50.0 mg/kg/injection, schedule: Q01DX005 (ip), vehicle: other); 91 % of control (endpoint: mean survival time, dose: 100.0 mg/kg/injection, schedule: Q01DX005 (ip), vehicle: other); 95 % of control (endpoint: mean survival time, dose: 200.0 mg/kg/injection, schedule: Q01DX005 (ip), vehicle: other).

Take `N/C(=N\O)c1ncn(C2CCCC2)c1N`: the T/C reads like this: under setting [6], 100 % of control; under setting [7], 102 % of control.

As for `O=C1c2cc([N+](=O)[O-])ccc2-c2ccc([N+](=O)[O-])cc21`, the T/C is 98 % of control (endpoint: mean survival time, dose: 12.5 mg/kg/injection, schedule: Q01DX009 (ip), vehicle: Klucel (hydroxypropylcellulose) (HPC)); 95 % of control (endpoint: mean survival time, dose: 25.0 mg/kg/injection, schedule: Q01DX009 (ip), vehicle: Klucel (hydroxypropylcellulose) (HPC)); 102 % of control (endpoint: mean survival time, dose: 50.0 mg/kg/injection, schedule: Q01DX009 (ip), vehicle: Klucel (hydroxypropylcellulose) (HPC)).

Consider `O=C1NC(=O)/C(=C/c2ccccc2)N1`, for which the T/C (endpoint: mean survival time, dose: 75.0 mg/kg/injection, schedule: Q04DX003 (ip), vehicle: saline sonified) was 100 % of control; the T/C (endpoint: mean survival time, dose: 150.0 mg/kg/injection, schedule: Q04DX003 (ip), vehicle: saline sonified) was 105 % of control; the T/C (endpoint: mean survival time, dose: 300.0 mg/kg/injection, schedule: Q04DX003 (ip), vehicle: saline sonified) was 105 % of control.

Regarding `OCC(F)(F)C(F)(F)C(F)(F)F`, the T/C (endpoint: mean survival time, dose: 75.0 mg/kg/injection, schedule: Q01DX009 (ip), vehicle: saline) was 95 % of control; the T/C (endpoint: mean survival time, dose: 150.0 mg/kg/injection, schedule: Q01DX009 (ip), vehicle: saline) was 95 % of control; the T/C (endpoint: mean survival time, dose: 300.0 mg/kg/injection, schedule: Q01DX009 (ip), vehicle: saline) is 103 % of control; the T/C (endpoint: mean survival time, dose: 600.0 mg/kg/injection, schedule: Q01DX009 (ip), vehicle: saline) was 86 % of control.

Consider `CS(=O)(=O)CS(=O)(=O)OCCCl`, for which the T/C reads like this: (endpoint: median survival time, dose: 6.25 mg/kg/injection, schedule: Q01DX009 (ip), vehicle: saline with Tween-80) 116 % of control and 121 % of control; (endpoint: median survival time, dose: 12.5 mg/kg/injection, schedule: Q01DX009 (ip), vehicle: saline with Tween-80) 168 % of control; (endpoint: median survival time, dose: 25.0 mg/kg/injection, schedule: Q01DX009 (ip), vehicle: saline with Tween-80) 207 % of control and 228 % of control; (endpoint: median survival time, dose: 25.0 mg/kg/injection, schedule: Q01DX009 (ip), vehicle: saline) 197 % of control; (endpoint: median survival time, dose: 50.0 mg/kg/injection, schedule: Q01DX009 (ip), vehicle: saline with Tween-80) 370 % of control and 722 % of control; (endpoint: median survival time, dose: 50.0 mg/kg/injection, schedule: Q01DX009 (ip), vehicle: saline) 352 % of control. Moreover, the T/C by setting is: (endpoint: median survival time, dose: 100.0 mg/kg/injection, schedule: Q01DX009 (ip), vehicle: saline with Tween-80) 370 % of control; (endpoint: median survival time, dose: 100.0 mg/kg/injection, schedule: Q01DX009 (ip), vehicle: saline) 352 % of control.

Consider `CC(CN(C)C)c1ccccn1` (stereo not drawn), for which the T/C by setting is: under setting [6], 106 % of control; under setting [7], 106 % of control; (endpoint: mean survival time, dose: 300.0 mg/kg/injection, schedule: Q01DX001 (ip), vehicle: other) 106 % of control.

For the molecule `COC(=O)c1[se]c(C(=O)OC)c(-c2ccccc2)c1-c1ccccc1`, the T/C is 100 % of control under setting [2], 103 % of control under setting [8] and 103 % of control under setting [9].

In the case of `OC1(C(Cl)(Cl)Cl)CCCCC1`, the T/C (endpoint: mean survival time, dose: 100.0 mg/kg/injection, schedule: Q01DX009 (ip), vehicle: other) was 101 % of control; the T/C (endpoint: mean survival time, dose: 200.0 mg/kg/injection, schedule: Q01DX009 (ip), vehicle: other) was 103 % of control; the T/C (endpoint: mean survival time, dose: 400.0 mg/kg/injection, schedule: Q01DX009 (ip), vehicle: other) is 106 % of control.

`O=C(C[n+]1cccc(C(=O)NCc2ccccc2)c1)NCc1ccccc1`: the T/C is 103 % of control under setting [10], 101 % of control under setting [1] and 98 % of control under setting [3].

Turning to `[I][Pt+2][I].[NH-]N1CCN([NH-])CC1`, the T/C (endpoint: mean survival time, dose: 3.13 mg/kg/injection, schedule: Q04DX003 (ip), vehicle: distilled water + Tween-80) is 102 % of control; the T/C (endpoint: mean survival time, dose: 6.25 mg/kg/injection, schedule: Q04DX003 (ip), vehicle: distilled water + Tween-80) was 100 % of control; the T/C (endpoint: mean survival time, dose: 12.5 mg/kg/injection, schedule: Q04DX003 (ip), vehicle: distilled water + Tween-80) was 102 % of control; the T/C (endpoint: mean survival time, dose: 25.0 mg/kg/injection, schedule: Q04DX003 (ip), vehicle: distilled water + Tween-80) is 102 % of control; the T/C (endpoint: mean survival time, dose: 50.0 mg/kg/injection, schedule: Q04DX003 (ip), vehicle: distilled water + Tween-80) is 104 % of control; the T/C (endpoint: mean survival time, dose: 100.0 mg/kg/injection, schedule: Q04DX003 (ip), vehicle: distilled water + Tween-80) was 102 % of control. Besides, the T/C (endpoint: mean survival time, dose: 200.0 mg/kg/injection, schedule: Q04DX003 (ip), vehicle: distilled water + Tween-80) was 100 % of control.

In the case of `Nc1ncnc2c1ncn2C1CC(O)C(O)CO1` (stereo not drawn), the T/C by setting is: under setting [2], 103 % of control; under setting [8], 105 % of control; under setting [9], 105 % of control.

On to `CN(C)S(=O)(=O)Oc1cccc(N)c1`, for which the T/C under setting [4] was 92 % of control and the T/C under setting [5] is 87 % of control.

Turning to `COc1ccc(C(=O)c2cccc3c2-c2ccccc2C3(c2ccc(OC)c(C)c2)c2ccc(OC)c(C)c2)cc1C`, the T/C (endpoint: mean survival time, dose: 5.0 mg/kg/injection, schedule: Q01DX001 (ip), vehicle: other) is 96 % of control; the T/C (endpoint: mean survival time, dose: 10.0 mg/kg/injection, schedule: Q01DX001 (ip), vehicle: other) is 88 % of control; the T/C (endpoint: mean survival time, dose: 40.0 mg/kg/injection, schedule: Q01DX001 (ip), vehicle: other) was 86 % of control; the T/C (endpoint: mean survival time, dose: 80.0 mg/kg/injection, schedule: Q01DX001 (ip), vehicle: other) is 91 % of control.

On to `Fc1ccc(N2CCNCC2)cc1`, for which the T/C is, setting by setting: (endpoint: mean survival time, dose: 12.5 mg/kg/injection, schedule: Q04DX003 (ip), vehicle: saline) 101 % of control; under setting [10], 103 % of control; under setting [1], 92 % of control.

For `S=C1NC(c2ccccc2)NC(c2ccccc2)S1` (stereo not drawn), the T/C runs as follows: (endpoint: mean survival time, dose: 12.0 mg/kg/injection, schedule: Q04DX003 (ip), vehicle: other) 86 % of control; (endpoint: mean survival time, dose: 25.0 mg/kg/injection, schedule: Q04DX003 (ip), vehicle: other) 97 % of control; (endpoint: mean survival time, dose: 50.0 mg/kg/injection, schedule: Q04DX003 (ip), vehicle: other) 90 % of control.
